{"source": "the METLIN SMRT retention time set (Domingo-Almenara et al. 2019)", "assay": "gradient 5% acetonitrile 3 min, to 50% in 2 min, to 85% in 15 min, held 3 min, 100 µL/min", "settings": "column: Zorbax Extend-C18 2.1 x 50 mm; eluents: water / acetonitrile, 0.1% formic acid", "method_in_brief": "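Data were gathered over 3 months by HPLC coupled to a quadrupole time-of-flight mass spectrometer, operated in positive and negative ionization mode. Mixtures of ~100 pure standards ran on a Zorbax Extend-C18 column (2.1 × 50 mm, 1.8 μm) at 100 μL/min, with water and acetonitrile each containing 0.1% formic acid and dead and dwell volumes of 40 μL and 900 μL. Retention time was read from adduct peaks picked by computer and checked manually.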", "data": [{"compound": "Cc1ccsc1C(=O)Nc1ccc(Cn2cncn2)cc1", "values": [{"measurement": "RP-LC retention time", "result": 695, "unit": "s"}]}, {"compound": "Cc1nc([C@H]2CCN(Cc3ccc4[nH]ccc4c3)C[C@H]2N(C)C)n[nH]1", "values": [{"measurement": "RP-LC retention time", "result": 520, "unit": "s"}]}, {"compound": "CCOc1cccc(-c2noc(-c3nn(-c4ccc(OC)cc4)ccc3=O)n2)c1", "values": [{"measurement": "RP-LC retention time", "result": 938, "unit": "s"}]}, {"compound": "Cc1ccc(-c2cn3cccc(C)c3n2)cc1NS(=O)(=O)c1ccc(Cl)cc1", "values": [{"measurement": "RP-LC retention time", "result": 714, "unit": "s"}]}, {"compound": "Cc1sc2ccn(C)c(=O)c2c1C(=O)Nc1ccccc1", "values": [{"measurement": "RP-LC retention time", "result": 818, "unit": "s"}]}, {"compound": "COc1ccc(-c2ccnc3nc(CCc4ccc(OC)c(OC)c4)nn23)cc1", "values": [{"measurement": "RP-LC retention time", "result": 859, "unit": "s"}]}, {"compound": "CC1CCN(C(=O)c2ccc3c(=O)n4c(nc3c2)CCCC4)CC1", "values": [{"measurement": "RP-LC retention time", "result": 707, "unit": "s"}]}, {"compound": "O=C(Nc1cccc(F)c1)C1CCN(S(=O)(=O)c2cc(-c3noc(C4CC4)n3)cs2)CC1", "values": [{"measurement": "RP-LC retention time", "result": 1040, "unit": "s"}]}, {"compound": "CCN1CCN(CCNC(=O)C2CCCN(c3ncc(-c4ccc(F)cc4)cn3)C2)CC1", "note": "(stereo unspecified)", "values": [{"measurement": "RP-LC retention time", "result": 632, "unit": "s"}]}, {"compound": "CC(C)(C)c1nnc(NC(=O)C2CCN(C(=O)c3ccc(F)cc3)CC2)s1", "values": [{"measurement": "RP-LC retention time", "result": 776, "unit": "s"}]}, {"compound": "COC(=O)c1[nH]c(C)c(C(=O)C(C)N(CC2CCCCC2)C(=O)c2ccc(OC)cc2)c1C", "note": "(stereo unspecified)", "values": [{"measurement": "RP-LC retention time", "result": 708, "unit": "s"}]}, {"compound": "Cc1sc2ccn(C)c(=O)c2c1C(=O)N1CCCCCC1", "values": [{"measurement": "RP-LC retention time", "result": 705, "unit": "s"}]}, {"compound": "C[C@H]1CN(C(=O)c2cc(F)cc(F)c2)C[C@@H]1c1nc(-c2ccccc2)no1", "values": [{"measurement": "RP-LC retention time", "result": 1040, "unit": "s"}]}, {"compound": "O=C(Cn1nc(N2CCOCC2)c2ccccc2c1=O)Nc1cccc(Cl)c1", "values": [{"measurement": "RP-LC retention time", "result": 846, "unit": "s"}]}, {"compound": "CC(C)CC(=O)N1CCCC(c2nc(CNC(=O)C(C)C)cs2)C1", "note": "(stereo unspecified)", "values": [{"measurement": "RP-LC retention time", "result": 705, "unit": "s"}]}, {"compound": "CC1(C)Cc2cccc(OCC(=O)Nc3cccc(-c4ccn[nH]4)c3)c2O1", "values": [{"measurement": "RP-LC retention time", "result": 775, "unit": "s"}]}, {"compound": "CC(C)CCNC(=O)CCSC1CCc2ccccc2NC1=O", "note": "(stereo unspecified)", "values": [{"measurement": "RP-LC retention time", "result": 777, "unit": "s"}]}, {"compound": "COC(=O)Cn1c(C2CC(=O)N(c3cccc(C)c3)C2)nc2ccccc21", "note": "(stereo unspecified)", "values": [{"measurement": "RP-LC retention time", "result": 758, "unit": "s"}]}, {"compound": "CC(C)(C)NC(=O)C(=O)c1c(-c2ccccc2)cc2ccccn12", "values": [{"measurement": "RP-LC retention time", "result": 948, "unit": "s"}]}, {"compound": "CCS(=O)(=O)c1ccc(-c2cccc(NC(=O)c3ccc4ccccc4n3)c2)nn1", "values": [{"measurement": "RP-LC retention time", "result": 912, "unit": "s"}]}, {"compound": "O=C(Cc1ccc(F)cc1)N1CCN(C(=O)c2nnn3c2COC(c2ccc(F)cc2)C3)CC1", "note": "(stereo unspecified)", "values": [{"measurement": "RP-LC retention time", "result": 861, "unit": "s"}]}, {"compound": "COc1ccc(Nc2c(C(=O)N3CCCCC3)cnc3nc(C)ccc23)cc1OC", "values": [{"measurement": "RP-LC retention time", "result": 588, "unit": "s"}]}, {"compound": "CCCCC(=O)NC1(C(F)(F)F)C(=O)N(CCc2ccccc2)C(C)=C1C(C)=O", "note": "(stereo unspecified)", "values": [{"measurement": "RP-LC retention time", "result": 980, "unit": "s"}]}, {"compound": "Cc1cc(C)cc(NS(=O)(=O)c2c(C)sc(C)c2-c2cc(C(F)(F)F)on2)c1", "values": [{"measurement": "RP-LC retention time", "result": 1240, "unit": "s"}]}, {"compound": "O=C(Nc1ccc(C2(C(=O)NCc3ccc(F)c(Cl)c3)CCC2)cc1)C1CC1", "values": [{"measurement": "RP-LC retention time", "result": 903, "unit": "s"}]}, {"compound": "O=C(Nc1ccc(F)cc1F)c1ccc(Br)cc1F", "values": [{"measurement": "RP-LC retention time", "result": 969, "unit": "s"}]}, {"compound": "CCCNC(=O)N1CCCC(C)(C(=O)NCc2ccc(C)cc2)C1", "note": "(stereo unspecified)", "values": [{"measurement": "RP-LC retention time", "result": 799, "unit": "s"}]}, {"compound": "COc1cccc(OC)c1CN1CCC2(CC1)CC(O)CCO2", "note": "(stereo unspecified)", "values": [{"measurement": "RP-LC retention time", "result": 597, "unit": "s"}]}, {"compound": "O=C(Cn1ccc2ccn(Cc3cccnc3)c2c1=O)N1CCCC1", "values": [{"measurement": "RP-LC retention time", "result": 578, "unit": "s"}]}, {"compound": "COCCNC(=O)c1cn(C)c2ncccc12", "values": [{"measurement": "RP-LC retention time", "result": 582, "unit": "s"}]}, {"compound": "O=C(CSc1cc(N2CCN(c3ccccc3F)CC2)ncn1)NCc1cccs1", "values": [{"measurement": "RP-LC retention time", "result": 931, "unit": "s"}]}, {"compound": "Cc1ccc(-c2cnn(CC(=O)Nc3ccc(Br)cc3)c(=O)n2)cc1", "values": [{"measurement": "RP-LC retention time", "result": 907, "unit": "s"}]}, {"compound": "O=C(NCCCn1nc(-c2ccc(F)cc2)ccc1=O)Nc1cc(Cl)ccc1Cl", "values": [{"measurement": "RP-LC retention time", "result": 566, "unit": "s"}]}, {"compound": "Cc1ccc(N2CCN(c3nccn4c(=O)n(CC(=O)Nc5ccc(C)c(Cl)c5)nc34)CC2)cc1", "values": [{"measurement": "RP-LC retention time", "result": 1060, "unit": "s"}]}, {"compound": "COc1ccc(N2CC(c3noc(-c4cc(Cl)ccc4F)n3)CC2=O)cc1", "note": "(stereo unspecified)", "values": [{"measurement": "RP-LC retention time", "result": 1050, "unit": "s"}]}, {"compound": "CCN1CCn2cc(S(=O)(=O)Nc3ccccc3Cl)cc2C1=O", "values": [{"measurement": "RP-LC retention time", "result": 706, "unit": "s"}]}, {"compound": "CCCc1ccc(OCC(O)CN2CCN(C)CC2)cc1", "note": "(stereo unspecified)", "values": [{"measurement": "RP-LC retention time", "result": 551, "unit": "s"}]}, {"compound": "CCCCCc1ccc(/C=C/C(=O)Nc2ccccc2C(=O)O)cc1", "values": [{"measurement": "RP-LC retention time", "result": 1230, "unit": "s"}]}, {"compound": "COc1ccccc1N1CCN(c2ccc(-c3nc(-c4ccccc4)no3)cn2)CC1", "values": [{"measurement": "RP-LC retention time", "result": 1350, "unit": "s"}]}, {"compound": "CCc1noc(NC(C)=O)c1-c1ccc(OC)c(S(=O)(=O)NCc2ccccc2C)c1", "values": [{"measurement": "RP-LC retention time", "result": 884, "unit": "s"}]}, {"compound": "CCn1nc(C)c(CCNC(=O)CCCn2c(=O)c3cccn3c3ccc(Br)cc32)c1C", "values": [{"measurement": "RP-LC retention time", "result": 730, "unit": "s"}]}, {"compound": "Cc1ccc2nc(N3CCN(C(=O)C(C)(C)C)CC3)c(-c3noc(-c4ccccc4)n3)cc2c1", "values": [{"measurement": "RP-LC retention time", "result": 1370, "unit": "s"}]}, {"compound": "CCn1cnc(S(=O)(=O)N2CCCC(C(=O)Nc3ccc(-c4nc5ccccc5[nH]4)cc3)C2)c1", "note": "(stereo unspecified)", "values": [{"measurement": "RP-LC retention time", "result": 633, "unit": "s"}]}, {"compound": "Cc1cc2nc(C(F)(F)F)c(=O)n(C(C)C(=O)N3CCN(c4ccccn4)CC3)c2cc1C", "note": "(stereo unspecified)", "values": [{"measurement": "RP-LC retention time", "result": 796, "unit": "s"}]}, {"compound": "CCS(=O)(=O)N1CC(=O)N(c2cccc(C)c2C)C(C)(C(=O)NCc2ccccc2)C1", "note": "(stereo unspecified)", "values": [{"measurement": "RP-LC retention time", "result": 807, "unit": "s"}]}, {"compound": "Cc1noc([C@@H]2CN(C(=O)c3cc(C)n(Cc4ccco4)c3C)C[C@H]2C(N)=O)n1", "values": [{"measurement": "RP-LC retention time", "result": 686, "unit": "s"}]}, {"compound": "COCCNC(=O)C1CCN(c2cnc(N3CCCC3)nc2)CC1", "values": [{"measurement": "RP-LC retention time", "result": 580, "unit": "s"}]}, {"compound": "CN(C)c1ccc(-c2nc3cnccn3c2Nc2cccc(Cl)c2)cc1", "values": [{"measurement": "RP-LC retention time", "result": 879, "unit": "s"}]}, {"compound": "Cc1cnc(C2CCC2)n1CC1CCN(S(=O)(=O)Cc2cccc(F)c2)C1", "note": "(stereo unspecified)", "values": [{"measurement": "RP-LC retention time", "result": 683, "unit": "s"}]}, {"compound": "CCn1cc(-c2nc(C)c(C(=O)Nc3ccc(C(=O)OC)cc3)s2)c2cccnc21", "values": [{"measurement": "RP-LC retention time", "result": 1020, "unit": "s"}]}, {"compound": "Cc1cc(-c2nnc(-c3ccccc3)o2)c(C)n1CC(=O)Nc1ccc2c(c1)OCO2", "values": [{"measurement": "RP-LC retention time", "result": 596, "unit": "s"}]}, {"compound": "COc1ccc(Nc2c(C(=O)N3CCC(C)CC3)cnc3nc(C)ccc23)c(OC)c1", "values": [{"measurement": "RP-LC retention time", "result": 662, "unit": "s"}]}, {"compound": "Cc1ccc(-c2ocnc2C(=O)NCCCN2CCc3ccccc3C2)s1", "values": [{"measurement": "RP-LC retention time", "result": 727, "unit": "s"}]}, {"compound": "Cc1noc(C2CN(C(=O)Nc3cc(F)cc(F)c3)CC23CCOCC3)n1", "note": "(stereo unspecified)", "values": [{"measurement": "RP-LC retention time", "result": 726, "unit": "s"}]}, {"compound": "CCCCN(C)CCNC(=O)c1ccc(N2CCCC2=O)cc1", "values": [{"measurement": "RP-LC retention time", "result": 581, "unit": "s"}]}, {"compound": "O=C(C1CCN(S(=O)(=O)c2cc(-c3noc(C4CCC4)n3)cs2)CC1)N1CCCCC1", "values": [{"measurement": "RP-LC retention time", "result": 971, "unit": "s"}]}, {"compound": "COCc1cc(=O)n(CC(=O)Nc2c(C)cccc2C)c(N)n1", "values": [{"measurement": "RP-LC retention time", "result": 604, "unit": "s"}]}, {"compound": "O=C(Cc1ccsc1)Nc1ccc2c(c1)CCC(=O)N2", "values": [{"measurement": "RP-LC retention time", "result": 662, "unit": "s"}]}, {"compound": "COC1C(=O)N(c2cccc(F)c2)C12CCN(C(=O)Nc1ccccc1F)CC2", "note": "(stereo unspecified)", "values": [{"measurement": "RP-LC retention time", "result": 890, "unit": "s"}]}, {"compound": "CCC(=O)N1CCN(c2ccc(-n3c(=O)ccc4cnc5ccc(-c6cnc7ccccc7c6)cc5c43)cc2C(F)(F)F)CC1", "values": [{"measurement": "RP-LC retention time", "result": 861, "unit": "s"}]}, {"compound": "CCN1CCN(C(=O)C2CCCN(c3nccc(C)n3)C2)CC1", "note": "(stereo unspecified)", "values": [{"measurement": "RP-LC retention time", "result": 559, "unit": "s"}]}, {"compound": "CCOc1cccc(CN2C(=O)C3(CCOCC3)CC2c2nnnn2C(C)(C)C)c1", "note": "(stereo unspecified)", "values": [{"measurement": "RP-LC retention time", "result": 820, "unit": "s"}]}, {"compound": "Cc1cc(F)ccc1NC(=O)c1sc(-c2cn(C)c3ncccc23)nc1C", "values": [{"measurement": "RP-LC retention time", "result": 899, "unit": "s"}]}, {"compound": "O=C(NC1CC1)c1n[nH]c2c1CCCC2", "values": [{"measurement": "RP-LC retention time", "result": 636, "unit": "s"}]}, {"compound": "CCn1cc(C(=O)Nc2cccc(Br)c2)c2nn(-c3ccccc3)c(=O)c-2c1", "values": [{"measurement": "RP-LC retention time", "result": 1090, "unit": "s"}]}, {"compound": "Cc1cccc2c(=O)n(C)c(CCC(=O)NCc3ccc(Br)cc3)nc12", "values": [{"measurement": "RP-LC retention time", "result": 887, "unit": "s"}]}]}
